Measured values published in patent US20240398727A1, “(S)-5-(1-(3,5-BIS(TRIFLUOROMETHYL)PHENOXY)ETHYL)CYCLOHEXANE-1,3-DIONE (NU-9) IMPROVES THE HEALTH OF DISEASED UPPER MOTOR NEURONS” (Northwestern University, priority 2021, published 2024).

Legend:
[1] = tested on: UMNs of hSOD1^G93A-UeGFP mice; test: Axon outgrowth of UMNs diseased by mSOD1 toxicity in dissociated motor cortex culture; format: cell-based, mouse; conditions: 3 days in vitro; for average length of UMN axons: SFM control 227.62±19.63 μm, WT 321.41±17.54 μm
Description: (§1) Mice. All animal procedures were approved by the Northwestern University Animal Care and Use committee and comply with the standards of the National Institutes of Health. All mice were on C57BL/6 background. Transgenic hemizygous males expressing a high copy number of the human SOD1 gene with a G93A mutation (B6SJL-Tg (SOD1*G93A)1Gur/J; The Jackson Laboratory) were bred to hemizygous UCHL1-eGFP females to generate hSOD1^G93A-UeGFP and WT-UeGFP (control) mice. UCHL1-eGFP mice were generated in the Ozdinler Lab; they are reporter lines for UMNs (Yasvoina, Genc et al. 2013), and are now available at Jackson Laboratory (stock no. 022476). Hemizygous UCHL1-eGFP females were bred to hemizygous prpTDP-43^A315T mice (procured from Jackson Laboratory, stock no. 010700) to generate prpTDP-43^A315T-UeGFP mice. prpTDP-43^A315T mice were supplied with gel diet (DietGel 76A, ClearH2O, ME, USA) to eliminate gastrointestinal (GI) complications. Transgenic mice were identified by PCR amplification of DNA extracted from their tail, as previously described (Gurney, Pu et al. 1994, Wegorzewska, Bell et al. 2009, Yasvoina, Genc et al. 2013, Gautam, Jara et al. 2019). Mice with different genotypes are abbreviated in the figures as follows: WT-UeGFP (control) mice=G mice; hSOD1^G93A-UeGFP mice=GS mice; prpTDP-43^A315T-UeGFP mice=GTDP mice.
(§2) Compound preparation and delivery. NU-9 was prepared as 100 μM stock in dimethylsulfoxide (DMSO) and added to serum free medium (SFM) at a final concentration of 400 nM (4 μl per 1 ml SFM). […] Edaravone (Sigma-Aldrich) was prepared as 1 mM stock in DMSO and added at a final concentration of 1 μM in SFM (1 μl per 1 ml SFM). Amylyx AMX-0035 compound was a combination of 1 mM of 4-Phenylbutyric acid (4-PBA, Sigma Aldrich)+100 μM Tauroursodeoxycholic Acid, Sodium Salt (TUDCA, Millipore Sigma) added into SFM (4-PBA was prepared as a 21.5 mM stock in water and added at 46.5 μl per 1 ml SFM, TUDCA was prepared as 20 mM stock in water, and added at 5 μl per 1 ml SFM).
(§3) UMN Cultures. P3 motor cortices isolated from WT-UeGFP, hSOD1^G93A-UeGFP, and prpTDP-43^A315T-UeGFP mice were dissected, dissociated, and cultured on glass coverslips (4×10^4 cells per 18 mm diameter coverslip, Fisherbrand) coated with poly-L-lysine (10 mg/mL, Sigma) as previously described (Ozdinler and Macklis 2006). […]
(§4) UMNs were quantitatively analyzed for differences in neurite length and arborization complexity. Images taken with a 20× objective on the epifluorescent microscope (Nikon) were analyzed using the Neurite Tracer plugin from FIJI (NIH), which enables semi-autonomous tracing to measure the length of the axon. […]

[2] = literature value; cited from earlier work
[3] = tested on: UMNs of hSOD1^G93A-UeGFP mice; test: Sholl analysis of arborization and branching, UMNs diseased by mSOD1 toxicity; format: cell-based, mouse; conditions: 3 days in culture, data not shown
Experimental: (§5) UMN Cultures. P3 motor cortices isolated from WT-UeGFP, hSOD1^G93A-UeGFP, and prpTDP-43^A315T-UeGFP mice were dissected, dissociated, and cultured on glass coverslips (4×10^4 cells per 18 mm diameter coverslip, Fisherbrand) coated with poly-L-lysine (10 mg/mL, Sigma) as previously described (Ozdinler and Macklis 2006). Neurons were cultured in SFM [0.034 mg/L BSA, 1 mM L-glutamine, 25 U/mL penicillin, 0.025 mg/mL streptomycin, 35 mM glucose, and 0.5% B27 in Neurobasal-A medium (Life Technologies)] in a humidified tissue culture incubator in the presence of 5% CO2 at 37° C. […] Cultures were fixed after 3 days in vitro (DIV).
(§6) UMNs were quantitatively analyzed for differences in neurite length and arborization complexity. Images taken with a 20× objective on the epifluorescent microscope (Nikon) were analyzed using the Neurite Tracer plugin from FIJI (NIH), which enables semi-autonomous tracing to measure the length of the axon. The aggregation of the neurite tracings centered at the soma generates a profile available for Sholl analysis.

[4] = tested on: UMNs from prpTDP-43^A315T-UeGFP mice; format: cell-based; conditions: prpTDP-43^A315T-UeGFP UMNs, 3 days in vitro; for average length of the axons of UMNs: SFM control 199.52±21.15 μm, WT 321.41±17.54 μm
Description: as §1, §2, §3, §4

[5] = male, BALB/c, mouse, in vivo, po
[6] = tested on: UMNs from prpTDP-43^A315T-UeGFP mice; test: Sholl analysis of arborization and branching, UMNs with TDP-43 pathology; format: cell-based, mouse; conditions: prpTDP-43^A315T-UeGFP UMNs; data not shown
Experimental: as §5, §6
Statistical analysis. All analyses were performed using Prism software (GraphPad Software). The D'Agostino and Pearson normality test was performed on all datasets. Statistical differences between more than two groups were determined by one-way ANOVA followed by the Tukey's post-hoc multiple-comparison test. […]

[7] = Plasma, brain and CNS concentrations after repeated oral dosing; conditions: mice, 100 mg/kg/day via daily gavage
in vivo = conditions: BALB/c, mouse, 100 mg/kg/day
male BALB/c mice = conditions: mouse, in vivo, po, 100 mg/kg/day
Experimental: Repeated dose toxicity study was performed at Laboratory Animal House (LAH), Toxicology, Sai Life Science Ltd., Chrysalis Enclave, Phase II, Hinjewadi, Pune-411 057, Maharashtra, India.

[8] = tested on: misfolded SOD1 (mSOD1) mouse model; conditions: literature (Snow 2003, Scott 2008); cited from earlier work
[9] = NU-9 400 nM, riluzole 500 nM, edaravone 1 μM
[10] = riluzole 500 nM, edaravone 1 μM

SMILES | average length of UMN axons [1, 9] | overall axon outgrowth (distribution of longest axons) [1, 10] | concentration reported to be present in the CNS after the optimum dose used in clinical trials [2] | UMN arborization (Sholl measurements) [3] | average length of the axons of UMNs [4, 9] | percentage of UMNs with axons in the range of 200-399 μm [4, 10] | time till which plasma concentrations were quantifiable [5] | time up to which brain concentrations were quantifiable [5] | percent of UMNs with an axon within the range of 300-399 μm ([1]; NU-9 400 nM) | neuronal arborization and branching (Sholl analyses) [6] | dose (concentration) detected in CNS [7] | concentration at 7 day (in vivo; CNS, oral) | Tmax (in vivo; male, plasma, po) | percentage of UMNs with axons longer than 300 μm ([4]; NU-9 400 nM, vehicle 26%) | mortality (male BALB/c mice) | longevity of the mSOD1 mouse model [8]
CC1=NN(c2ccccc2)C(=O)C1 [edaravone, 2,4-Dihydro-5-methyl-2-phenyl-3H-pyrazol-3-one, reference compound] | 289.58±22.71 μm | improved overall axon outgrowth | 1 µM | improved UMN arborization, but to a lesser extent | 282.57±32.39 μm | 62% | – | – | – | – | – | – | – | – | – | –
C[C@H](Oc1cc(C(F)(F)F)cc(C(F)(F)F)c1)C1CC(=O)CC(=O)C1 [NU-9, (S)-5-(1-(3,5-bis(trifluoromethyl)phenoxy)ethyl)cyclohexane-1,3-dione] | 346.76±12.32 μm | – | – | more complex and arborized UMNs | 397.73±14.09 μm | – | up to 24 h | up to 24 h | about 44.4% | enhanced neuronal arborization and branching | 400 nM | 400 nM | 30 min | 88% | did not result in mortality | –
Nc1nc2ccc(OC(F)(F)F)cc2s1 [riluzole, 2-Amino-6-(trifluoromethoxy)benzothiazole] | – | – | – | – | – | – | – | – | – | – | – | – | – | – | – | failed to improve the longevity
